US10807993B2, “Dihydrochromene derivatives” (Sumitomo Dainippon Pharma Co., Ltd., priority 2018, dated 2020)
Read-outs that look alike come from different tables or passages of the source.

Assays:
[1] = tested on: HT-29 cells; assay: Inhibition test for sphere formation assay of cancer cells; format: cell-based; conditions: for IC50: sphere culture (ultra-low attachment, serum-free), 4 days, CellTiter-Glo, read-out: Sphere IC50 value (concentration for 50% inhibition of cell proliferation); for activity for inhibiting cell proliferation in the sphere culture condition: summary in words
Procedure: Reliable methods established for measuring the self-renewal ability of cells which is one of the CSC's properties include a method for measuring the sphere-forming ability of cancer cells in non-adherent condition in the absence of serum (Cancer Res 65, 5506-5511 (2005)). HT-29 cells were available from American Type Culture Collection (ATCC). HT-29 cells were cultured at 37° C. under 5% CO2 using the McCoy's 5a medium containing 10% fetal bovine serum (FBS) and 1% penicillin/streptomycin. HT-29 cells were seeded in a 384 Well Black Clear Bottom Ultra-Low Attachment Microplate (Corning Cat. No. 3827) in an amount of 350-800 cells/well using the DMEM/F12 medium containing 2% B27 supplement (GIBCO), 20 ng/mL epidermal growth factor (EGF) (peprotech), 10 ng/mL basic fibroblast growth factor (bFGF) (peprotech), 5 μg/mL insulin (Sigma), and 1% penicillin/streptomycin. Each test compound was added into each well to adjust the final concentration of DMSO to 0.1%, and the cells were cultured for 4 days. The number of viable cells in each well was then measured with CellTiter-Glo™ Luminescent Cell Viability Assay (Promega) to calculate the concentration of each test compound for 50% inhibition of cell proliferation (Sphere IC50 value; […])
The experiment of Test 1 was performed for each compound of each Example. The concentration of each test compound for 50% inhibition of cell proliferation (Sphere IC50 value; μmol/L) is shown in the following Table.

[2] = target: T1, hERG (Homo sapiens (Human), UniProt Q12809)
Procedure: (§1) To a cultured CHO cell strain which stably expresses hERG was added each test compound to adjust the final concentration of DMSO to 0.0135 to 0.5%. The hERG current was measured with QPatch HT (Sophion Inc.), and the concentration at which 50% of the hERG current was inhibited by each test compound (IC50 value; μM) was calculated.
(§2) The compounds of Examples were tested according to Test 2. And, the hERG/HT-29 was calculated by dividing the compound concentration obtained in Test 2 (50% of the hERG current is inhibited) by the compound concentration obtained in Test 1 (50% of the proliferation of HT-29 cells is inhibited).

[3] = target: T1, hERG; assay: Test for evaluating hERG inhibition (QPatch HT, CHO cell strain stably expressing hERG); conditions: for hERG/HT-29: hERG IC50 (Test 2) divided by HT-29 sphere IC50 (Test 1); for IC50: read-out: Binding inhibition (IC50, μM), concentration at which 50% of the hERG current was inhibited, CHO cells stably expressing hERG, QPatch HT; for deviation between the concentration of inhibiting 50% cell proliferation and the concentration of inhibiting 50% hERG current: summary in words of hERG/HT-29
Procedure: as §1, §2

T1 sequence (Q12809 whole entry): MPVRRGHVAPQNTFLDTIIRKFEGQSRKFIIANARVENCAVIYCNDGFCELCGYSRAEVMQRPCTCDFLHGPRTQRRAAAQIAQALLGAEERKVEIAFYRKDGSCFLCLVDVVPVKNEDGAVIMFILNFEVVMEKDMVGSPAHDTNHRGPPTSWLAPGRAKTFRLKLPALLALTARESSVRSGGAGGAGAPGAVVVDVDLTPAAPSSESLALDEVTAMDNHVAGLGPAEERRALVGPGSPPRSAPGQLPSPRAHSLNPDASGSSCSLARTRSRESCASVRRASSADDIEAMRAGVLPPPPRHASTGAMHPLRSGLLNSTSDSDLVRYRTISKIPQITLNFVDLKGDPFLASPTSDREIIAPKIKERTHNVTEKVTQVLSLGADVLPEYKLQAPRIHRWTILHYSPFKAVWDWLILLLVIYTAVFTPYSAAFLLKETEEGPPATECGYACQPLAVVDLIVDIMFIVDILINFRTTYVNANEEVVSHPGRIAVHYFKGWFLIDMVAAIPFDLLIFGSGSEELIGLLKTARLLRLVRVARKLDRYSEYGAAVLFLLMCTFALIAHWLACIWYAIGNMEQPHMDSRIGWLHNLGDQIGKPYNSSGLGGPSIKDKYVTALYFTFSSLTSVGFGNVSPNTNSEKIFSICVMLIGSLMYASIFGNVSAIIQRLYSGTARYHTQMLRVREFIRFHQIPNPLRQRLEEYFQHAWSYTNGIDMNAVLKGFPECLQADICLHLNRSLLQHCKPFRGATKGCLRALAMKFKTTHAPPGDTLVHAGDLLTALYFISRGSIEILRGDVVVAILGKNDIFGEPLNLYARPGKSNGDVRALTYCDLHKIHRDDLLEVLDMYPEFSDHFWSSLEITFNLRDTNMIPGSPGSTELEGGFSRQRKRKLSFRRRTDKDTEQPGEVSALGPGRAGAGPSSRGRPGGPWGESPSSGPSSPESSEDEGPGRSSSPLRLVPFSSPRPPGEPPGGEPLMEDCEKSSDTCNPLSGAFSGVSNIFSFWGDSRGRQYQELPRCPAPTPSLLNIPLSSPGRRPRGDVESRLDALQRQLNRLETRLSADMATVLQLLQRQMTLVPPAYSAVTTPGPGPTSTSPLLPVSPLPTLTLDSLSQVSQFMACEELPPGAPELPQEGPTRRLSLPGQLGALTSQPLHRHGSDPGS

IC50 [1] [nM] | SMILES | IC50 [2] [nM] | hERG/HT-29 [2] | activity for inhibiting cell proliferation in the sphere culture condition [1] | hERG/HT-29 [3] | IC50 [3] [µM] | deviation between the concentration of inhibiting 50% cell proliferation and the concentration of inhibiting 50% hERG current [3]
160 | CC(=O)NCCc1nccn1CCN1CCC2(CC1)COC1c3cc(Cl)ccc3OC(C)(C)C1C2 (stereo not drawn) [Example 60] | 1100 | 6.88 |  |  |  | 
310 | Cc1nccn1CC(=O)N1CCC2(CC1)COC1c3ccc(Br)cc3OC(C)(C)C1C2 (stereo not drawn) [Example 8] | 300 | 0.97 |  |  |  | 
70 | Cc1nc(CO)cn1CCN1CCC2(CC1)COC1c3ccc(Cl)cc3OC(C)(C)C1C2 (stereo not drawn) [Example 57] | 1100 | 15.7 |  |  |  | 
60 | CC1(C)Oc2ccc(Cl)cc2C2OCC3(CCN(CCn4cnc(CO)c4)CC3)CC21 (stereo not drawn) [Example 55] | 1600 | 26.7 |  |  |  | 
300 | CC1(C)Oc2ccc(Cl)cc2C2OCC3(CCN(C(=O)Cn4ccnc4CO)CC3)CC21 (stereo not drawn) [Example 15] | 1600 | 5.33 |  |  |  | 
< 10 | Cc1nccn1CCN1CCC2(CC1)COC1c3ccc(Cl)cc3OC(C)(C)C1C2 (stereo not drawn) [Example 51] |  |  | potent activity | >90 | 0.9 | good deviation
350 | Cc1nc[nH]c1CN1CCC2(CC1)COC1c3cccc(Cl)c3OC(C)(C)C1C2 (stereo not drawn) [Example 27] |  |  |  | 1.14 | 0.4 | 
60 | Cn1cncc1CN1CCC2(CC1)COC1c3cc(F)ccc3OC(C)(C)C1C2 (stereo not drawn) [Example 31] |  |  |  | 23.3 | 1.4 | 
8300 | CC1(C)Oc2ccc(Cl)cc2C2OCC3(CCN(C(=O)Cn4cnc(C(F)(F)F)c4)CC3)CC21 (stereo not drawn) [Example 17] | 3000 | 0.36 |  |  |  | 
< 10 | Cc1nc[nH]c1CN1CCC2(CC1)COC1c3ccc(Cl)cc3OCC1C2 (single isomer, unassigned) [Example 64a] |  |  | potent activity | >60 | 0.6 | good deviation
30 | Cc1nccn1CCN1CCC2(CC1)COC1c3ccc(Cl)cc3OC(C)(C)C1C2 (stereo not drawn) [Example 50] | 1500 | 50 |  |  |  | 
< 10 | Cc1c(CO)ncn1CCN1CCC2(CC1)COC1c3cc(Cl)ccc3OC(C)(C)C1C2 (stereo not drawn) [Example 56] |  |  | potent activity | >80 | 0.8 | good deviation
550 | CC1(C)Oc2ccc(Cl)cc2C2OCC3(CCN(C(=O)Cn4ccnc4C#N)CC3)CC21 (stereo not drawn) [Example 12] | 2900 | 5.27 |  |  |  | 
50 | Cc1nc[nH]c1CN1CCC2(CC1)COC1c3ccc(Cl)cc3OCC1C2 (single isomer, unassigned) [Example 64b] |  |  |  |  | < 0.3 | 
400 | Cc1c(CO)ncn1CC(=O)N1CCC2(CC1)COC1c3cc(Cl)ccc3OC(C)(C)C1C2 (stereo not drawn) [Example 14] | 300 | 0.75 |  |  |  | 
4090 | CC1(C)Oc2ccc(N=[N+]=[N-])cc2C2OCC3(CCN(C(=O)Cn4ccnc4C#N)CC3)CC21 (stereo not drawn) [Example 11] | 4900 | 1.20 |  |  |  | 
50 | Cc1nccn1CCN1CCC2(CC1)COC1c3cc(F)ccc3OC(C)(C)C1C2 (stereo not drawn) [Example 43] | 1000 | 20 |  |  |  | 
70 | CC1(C)Oc2ccc(Cl)cc2C2OCC3(CCN(CCn4ccnc4C#N)CC3)CC21 (stereo not drawn) [Example 58] | 1900 | 27.1 |  |  |  | 
810 | CC1(C)Oc2ccc(Cl)cc2C2OCC3(CCN(Cc4c[nH]cn4)CC3)CC21 (stereo not drawn) [Example 29] |  |  |  | 3.21 | 2.6 | 
410 | Cc1nccn1CC(=O)N1CCC2(CC1)COC1c3ccc(Cl)cc3OC(C)(C)C1C2 (stereo not drawn) [Example 5] |  |  |  |  | < 0.3 | 
< 10 | Cc1nccn1CCN1CCC2(CC1)COC1c3cc(F)ccc3OC(C)(C)C1C2 (stereo not drawn) [Example 45] | 400 | >40 | potent activity |  |  | 
90 | Cc1nccn1CC(=O)N1CCC2(CC1)COC1c3cc(Br)ccc3OC(C)(C)C1C2 (stereo not drawn) [Example 7] |  |  |  |  | < 0.3 | 
240 | Cc1nccn1CC(=O)N1CCC2(CC1)COC1c3cc(F)ccc3OC(C)(C)C1C2 (stereo not drawn) [Example 2] |  |  |  |  | < 0.3 | 
< 10 | Cc1nccn1CCN1CCC2(CC1)COC1c3ccc(Cl)cc3OC(C)(C)C1C2 (stereo not drawn) [Example 49] |  |  | potent activity | >140 | 1.4 | good deviation
< 10 | CC1(C)Oc2ccc(Cl)cc2C2OCC3(CCN(CCn4ccnc4)CC3)CC21 (stereo not drawn) [Example 40] |  |  | potent activity | >140 | 1.4 | good deviation
80 | Cc1nccn1CC(=O)N1CCC2(CC1)COC1c3cc(Cl)ccc3OC(C)(C)C1C2 (single isomer, unassigned) [Example 3] | 200 | 2.50 |  |  |  | 

SMILES | IC50 [1] [nM] | IC50 [2] [nM] | hERG/HT-29 [2] | activity for inhibiting cell proliferation in the sphere culture condition [1] | hERG/HT-29 [3] | IC50 [3] [µM] | deviation between the concentration of inhibiting 50% cell proliferation and the concentration of inhibiting 50% hERG current [3]
Cc1nc[nH]c1CN1CCC2(CC1)COC1c3cc(F)ccc3OC(C)(C)C1C2 (stereo not drawn) [Example 23] | 60 |  |  |  | 23.3 | 1.4 | 
Cc1nccn1CCN1CCC2(CC1)COC1c3cc(Cl)ccc3OC(C)(C)C1C2 (stereo not drawn) [Example 48] | < 10 |  |  | potent activity | >80 | 0.8 | good deviation
Cc1nc[nH]c1CN1CCC2(CC1)COC1c3ccc(Cl)cc3OC(C)(C)C1C2 (stereo not drawn) [Example 20] | < 10 |  |  | potent activity | >140 | 1.4 | good deviation
Cc1nc[nH]c1CN1CCC2(CC1)COC1c3cc(Cl)ccc3OC(C)(C)C1C2 (stereo not drawn) [Example 24] | 90 |  |  |  | 42.2 | 3.8 | 
Cc1nc[nH]c1CN1CCC2(CC1)COC1c3cc(Cl)ccc3OC(C)(C)C1C2 (stereo not drawn) [Example 26] | < 10 |  |  | potent activity | >60 | 0.6 | good deviation
Cc1nc[nH]c1CN1CCC2(CC1)COC1c3cc(F)ccc3OC(C)(C)C1C2 (stereo not drawn) [Example 22] | 240 |  |  |  | 6.67 | 1.6 | 
Cn1cncc1CN1CCC2(CC1)COC1c3cccc(Cl)c3OC(C)(C)C1C2 (stereo not drawn) [Example 34] | < 10 |  |  | potent activity | >140 | 1.4 | good deviation
